Measurements taken from patent US20220081422A1 (Janssen Biotech, Inc., priority 2019, published 2022).

How the values were obtained:
MOLM-13 cells = experiment: MOLM-13 cellular assay (CellTiter-Glo cell viability); type: cell-based; settings: 72 hours exposure, cell viability by CellTiter-Glo
Experimental: In Vitro Assay: MOLM-13 Cellular Assay
MOLM-13 cells were obtained from DSMZ and were maintained in RPMI 1640+Glutamax+25 mM HEPES (Invitrogen, catalog number 72400) supplemented with 10% heat inactivated fetal bovine serum (FBS; Invitrogen, catalog number 16140). The day prior to assay set-up, cells were pelleted, resuspended in fresh media, counted, and cells were plated at 0.4×10^6 cell/mL in a T150 flask. On the day of the assay, cells were pelleted, resuspend in fresh media, counted and seeded at 5,000 cells/well in white opaque 96-well tissue culture treated microplates (Perkin Elmer, catalog number 6005680). Cells were exposed to different concentrations of test compounds at 37° C., 5% CO2 for 72 hours immediately after seeding. Cell viability was acquired on a Perkin Elmer Envision 2104 multilabel reader using the CellTiter-Glo assay (Promega) according to the manufacturer's instructions.

human DHODH = biological target: T1, human DHODH (Homo sapiens, UniProt Q02127); experiment: DHODH enzymatic assay (DCIP absorbance, end-point); type: biochemical; settings: purified human DHODH, DCIP as final electron acceptor, end-point mode; read-out: hDHODH IC50
T1 construct: purchased Proteros PR-0044
Experimental: In vitro Assay: DHODH enzymatic assay
To detect DHODH enzyme activities, dichloroindophenol (DCIP) is added as the final electron acceptor in the assay. DCIP can accept electrons from the reduced coenzyme Q generated in the assay, or from dihydroorotate (DHO) via FMN by binding presumably to the ubiquinone pocket. […] The assay buffer contained […], pH 7.5, 150 mM NaCl, 0.5 mM EDTA, and 0.1% Triton X-100 in MilliQ water. Substrate consisting of 20 mM DHO, 5 mM CoQ6, and 1 mM DCIP in assay buffer, initiates the reaction. […] Absorbance measurements were obtained using the BMG Phera Star plate-reading spectrophotometer. Purified human DHODH was purchased from Proteros (cat. No. PR-0044). Chemicals were purchased from Sigma-Aldrich, Teknova, and Avanti Polar Lipids. Liquid handling was performed using Labcyte Echo and Formulatrix Tempest.

T1 sequence (Q02127 whole entry): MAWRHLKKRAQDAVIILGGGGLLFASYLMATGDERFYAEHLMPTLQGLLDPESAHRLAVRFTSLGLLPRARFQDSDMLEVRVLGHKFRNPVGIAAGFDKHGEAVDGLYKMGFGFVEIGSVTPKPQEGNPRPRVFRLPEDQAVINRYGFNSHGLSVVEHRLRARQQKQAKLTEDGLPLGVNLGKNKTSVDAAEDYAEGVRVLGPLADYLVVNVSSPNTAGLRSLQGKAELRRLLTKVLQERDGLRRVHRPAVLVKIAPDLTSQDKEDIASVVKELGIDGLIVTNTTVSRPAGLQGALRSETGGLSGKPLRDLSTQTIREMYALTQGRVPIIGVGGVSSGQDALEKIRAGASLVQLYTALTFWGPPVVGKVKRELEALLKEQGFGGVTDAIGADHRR

SMILES	IC50 (MOLM-13 cells)	IC50 (human DHODH)	IC50 (MOLM-13 cells; Homo sapiens, MOLM-13, 72 h)
CCn1c(CO)nn(-c2cc3c(cc2F)C(=O)N(c2ccccc2Cl)CC3C(C)C)c1=O (single isomer, unassigned) [Example 37, (R *)-2-(2-Chlorophenyl)-6-(4-ethyl-3-(hydroxymethyl)-5-oxo-4,5-dihydro-1H-1,2,4-triazol-1-yl)-7-fluoro-4-isopropyl-3,4-dihydroisoquinolin-1(2H)-one]	15.5 nM	20 nM	
C=C(C)C1CN(c2cc(C)ccc2F)C(=O)c2cc(F)c(-n3nc(CO)n(CC)c3=O)cc21 (single isomer, unassigned) [Example 39, (S *)-6-(4-Ethyl-3-(hydroxymethyl)-5-oxo-4,5-dihydro-1H-1,2,4-triazol-1-yl)-7-fluoro-2-(2-fluoro-5-methylphenyl)-4-(prop-1-en-2-yl)-3,4-dihydroisoquinolin-1(2H)-one]	14.1 nM	20 nM	
C=C(C)C1CN(c2cc(C)ccc2F)C(=O)c2cc(F)c(-n3nc(CO)n(CC)c3=O)cc21 (single isomer, unassigned) [Example 40, (R *)-6-(4-Ethyl-3-(hydroxymethyl)-5-oxo-4,5-dihydro-1H-1,2,4-triazol-1-yl)-7-fluoro-2-(2-fluoro-5-methylphenyl)-4-(prop-1-en-2-yl)-3,4-dihydroisoquinolin-1(2H)-one]	52.9 nM	40 nM	
C=C(C)C1CN(c2ccccc2C)C(=O)c2cc(F)c(-n3nc(CO)n(CC)c3=O)cc21 (single isomer, unassigned) [Example 41, (S*)-6-(4-Ethyl-3-(hydroxymethyl)-5-oxo-4,5-dihydro-1H-1,2,4-triazol-1-yl)-7-fluoro-4-(prop-1-en-2-yl)-2-(o-tolyl)-3,4-dihydroisoquinolin-1(2H)-one]	1.99 nM	1 nM	
C=C(C)C1CN(c2ccccc2C)C(=O)c2cc(F)c(-n3nc(CO)n(CC)c3=O)cc21 (single isomer, unassigned) [Example 42, (R *)-6-(4-Ethyl-3-(hydroxymethyl)-5-oxo-4,5-dihydro-1H-1,2,4-triazol-1-yl)-7-fluoro-4-(prop-1-en-2-yl)-2-(o-tolyl)-3,4-dihydroisoquinolin-1(2H)-one]	6.79 nM	4 nM	
C=C(C)C1CN(c2c(C)n[nH]c2Cl)C(=O)c2cc(F)c(-n3nc(CO)n(CC)c3=O)cc21 (single isomer, unassigned) [Example 48, (S*)-2-(5-Chloro-3-methyl-1H-pyrazol-4-yl)-6-(4-ethyl-3-(hydroxymethyl)-5-oxo-4,5-dihydro-1H-1,2,4-triazol-1-yl)-7-fluoro-4-(prop-1-en-2-yl)-3,4-dihydroisoquinolin-1(2H)-one]	0.834 nM	20 nM	
C=C(C)C1CN(c2c(C)n[nH]c2Cl)C(=O)c2cc(F)c(-n3nc(CO)n(CC)c3=O)cc21 (single isomer, unassigned) [Example 49, (R *)-2-(5-Chloro-3-methyl-1H-pyrazol-4-yl)-6-(4-ethyl-3-(hydroxymethyl)-5-oxo-4,5-dihydro-1H-1,2,4-triazol-1-yl)-7-fluoro-4-(prop-1-en-2-yl)-3,4-dihydroisoquinolin-1(2H)-one]	2.28 nM	10 nM	
CCn1c(CO)nn(-c2cc3c(cc2F)C(=O)N(c2c(C)cnc(OC)c2Cl)CC3C(C)C)c1=O (single isomer, unassigned) [Example 66, (S*)-2-(3-Chloro-2-methoxy-5-methylpyridin-4-yl)-6-(4-ethyl-3-(hydroxymethyl)-5-oxo-4,5-dihydro-1H-1,2,4-triazol-1-yl)-7-fluoro-4-isopropyl-3,4-dihydroisoquinolin-1(2H)-one]	2.96 nM	2 nM	
CCn1c(CO)nn(-c2cc3c(cc2F)C(=O)N(c2c(C)cnc(OC)c2Cl)CC3C(C)C)c1=O (single isomer, unassigned) [Example 67, (R *)-2-(3-Chloro-2-methoxy-5-methylpyridin-4-yl)-6-(4-ethyl-3-(hydroxymethyl)-5-oxo-4,5-dihydro-1H-1,2,4-triazol-1-yl)-7-fluoro-4-isopropyl-3,4-dihydroisoquinolin-1(2H)-one]	351 nM	> 100 nM	
C=C(C)C1CN(c2c(F)cccc2Cl)C(=O)c2cc(F)c(-n3nc(CO)n(CC)c3=O)cc21 (single isomer, unassigned) [Example 68, (R*)-2-(2-Chloro-6-fluorophenyl)-6-(4-ethyl-3-(hydroxymethyl)-5-oxo-4,5-dihydro-1H-1,2,4-triazol-1-yl)-7-fluoro-4-(prop-1-en-2-yl)-3,4-dihydroisoquinolin-1(2H)-one]	4.66 nM	2 nM	
C=C(C)C1CN(c2c(F)cccc2Cl)C(=O)c2cc(F)c(-n3nc(CO)n(CC)c3=O)cc21 (single isomer, unassigned) [Example 69, (S*)-2-(2-Chloro-6-fluorophenyl)-6-(4-ethyl-3-(hydroxymethyl)-5-oxo-4,5-dihydro-1H-1,2,4-triazol-1-yl)-7-fluoro-4-(prop-1-en-2-yl)-3,4-dihydroisoquinolin-1(2H)-one]	< 1.69 nM	0.3 nM	
CCC(C)C1CN(c2c(F)cccc2Cl)C(=O)c2cc(F)c(-n3nc(CO)n(CC)c3=O)cc21 (single isomer, unassigned) [Example 70, (S*)-4-((RS)-sec-butyl)-2-(2-chloro-6-fluorophenyl)-6-(4-ethyl-3-(hydroxymethyl)-5-oxo-4,5-dihydro-1H-1,2,4-triazol-1-yl)-7-fluoro-3,4-dihydroisoquinolin-1(2H)-one]		6 nM	14.5 nM
C=C(C)[C@@H]1CN(c2c(C)cnc(OC)c2C)C(=O)c2cc(F)c(-n3nc(CO)n(CC)c3=O)cc21 (single isomer, unassigned; atropisomer 1) [Example 54, Atropisomer 1, (S*)-6-(4-Ethyl-3-(hydroxymethyl)-5-oxo-4,5-dihydro-1H-1,2,4-triazol-1-yl)-7-fluoro-2-(2-methoxy-3,5-dimethylpyridin-4-yl)-4-(prop-1-en-2-yl)-3,4-dihydroisoquinolin-1 (2H)-one]	2.2 nM	20 nM	
C=C(C)[C@H]1CN(c2c(C)cnc(OC)c2C)C(=O)c2cc(F)c(-n3nc(CO)n(CC)c3=O)cc21 (single isomer, unassigned; atropisomer 1) [Example 55, Atropisomer 1, (R *)-6-(4-Ethyl-3-(hydroxymethyl)-5-oxo-4,5-dihydro-1H-1,2,4-triazol-1-yl)-7-fluoro-2-(2-methoxy-3,5-dimethylpyridin-4-yl)-4-(prop-1-en-2-yl)-3,4-dihydroisoquinolin-1(2H)-one]	1160 nM	> 100 nM	
C=C(C)[C@@H]1CN(c2c(C)cc(C)nc2Cl)C(=O)c2cc(F)c(-n3nc(CO)n(CC)c3=O)cc21 (single isomer, unassigned; atropisomer 1) [Example 58, Atropisomer 1, (S*)-2-(2-Chloro-4,6-dimethylpyridin-3-yl)-6-(4-ethyl-3-(hydroxymethyl)-5-oxo-4,5-dihydro-1H-1,2,4-triazol-1-yl)-7-fluoro-4-(prop-1-en-2-yl)-3,4-dihydroisoquinolin-1(2H)-one]	2.93 nM	4 nM	
